Legend:
[1] = PK studies in animals of salt crystal forms, intragastric 30 mg/kg; type: in vivo; conditions: 0.5% HPMC K4M suspension
Experimental: 7.2.1 Crystal form A of mesylate salt, crystal form D of sulfate salt and crystal form A of ethanesulfonate salt of (S)-2-((2-((R)-4-(difluoromethyl)-2-oxothiazolidin-3-yl)-5,6-dihydrobenzo[f]imidazo[1,2-d][1,4]oxazepin-9-yl)amino)propionamide were evenly suspended in an aqueous solution containing 0.5% HPMC (hydroxypropyl methylcellulose) K4M, and then intragastrically administered to rats in duplicate at a dose of 30 mg/kg. The amount of the compound was all converted into the amount of the same compound (S)-2-((2-((R)-4-(difluoromethyl)-2-oxothiazolidin-3-yl)-5,6-dihydrobenzo[f]imidazo[1,2-d][1,4]oxazepin-9-yl)amino)propionamide.

[2] = Hygroscopicity experiment; type: physicochemical; conditions: RH 80%
Experimental: Crystal form A of mesylate salt, crystal form D of sulfate salt and crystal form A of ethanesulfonate salt of (S)-2-((2-((R)-4-(difluoromethyl)-2-oxothiazolidin-3-yl)-5,6-dihydrobenzo[f]imidazo[1,2-d][1,4]oxazepin-9-yl)amino)propionamide were placed in saturated water vapor with different relative humidity, so that the compound and water vapor reached a dynamic equilibrium, and the percentage of hygroscopic weight gain of the compound after the equilibrium was calculated.

[3] = rat, in vivo, po, rats, 30 mg/kg (as free compound)

C[C@H](Nc1ccc2c(c1)OCCn1cc(N3C(=O)SC[C@H]3C(F)F)nc1-2)C(N)=O.O=S(=O)(O)O [crystal form D of sulfate salt, (S)-2-((2-((R)-4-(difluoromethyl)-2-oxothiazolidin-3-yl)-5,6-dihydrobenzo[f]imidazo[1,2-d][1,4]oxazepin-9-yl)amino)propionamide]
exposure in rats (in words) ([1]; 30 mg/kg): higher exposures
AUC(0-inf) [1, 3]: 9600 ng·h/mL
AUC(0-t) [1, 3]: 9420 ng·h/mL
Cmax [1, 3]: 1360 ng/mL
Tmax [1, 3]: 1 h
half-life [1, 3]: 3.3 h
MRT inf ([1]; rat, in vivo, po, rats, 30 mg/kg (as free compound), read-out: MRT0-∞): 5.77 h
hygroscopic weight gain [2]: 1.256%
hygroscopicity (in words) [2]: had hygroscopicity

Reference: patent publication US12624050B2, “Three fused ring derivative-containing salt or crystal form and pharmaceutical composition thereof” (Shanghai Hansoh Biomedical Co., Ltd., priority 2019, dated 2026)
